In ChEMBL document CHEMBL5512665, “A CARM1 Inhibitor Potently Suppresses Breast Cancer Both In Vitro and In Vivo” (J Med Chem, 2024):
Active and inactive are the calls of the source.

Assays:
MCF7 [1] = test: Antitumor activity against human MCF7 cells xenografted in BALB/C mouse assessed as reduction of tumor weight at 50 mg/kg,ip administrated every other day for 29 days; format: functional, organism-based; details: time 29.0 day
MCF7 [2] = test: Antiproliferative activity against tamoxifen-resistant human MCF7 cells assessed as reduction in cell growth at 5 uM incubated for 7 days by celltiter 96 aqueous one solution cell proliferation assay; format: functional, cell-based; details: time 7.0 day
4T1 [3] = test: Antitumor activity against mouse 4T1 cells implanted in BALB/C mouse assessed as downregulation of PGR gene expression at 50 mg/kg,ip administrated daily for 14 days by RT-qPCR analysis; format: functional, organism-based; details: time 14.0 day
4T1 [4] = test: Potentiation of etoposide induced antiproliferative activity against mouse 4T1 cells assessed as upregulation of CCL5 gene expression at 2.5 uM in presence of etoposide by RT-qPCR analysis; format: functional, cell-based
4T1 [5] = test: Potentiation of etoposide induced antitumor activity against mouse 4T1 cells implanted in BALB/C mouse assessed as upregulation of IFIT1 gene expression at 25 mg/kg,ip administrated daily for 12 days in presence of 8 mg/kg etoposide administration by RT-qPCR analysis; format: functional, organism-based; details: time 12.0 day
MCF7 [6] = test: Synergistic antiproliferative activity against human MCF7 cells assessed as downregulation of C-Myc gene expression at 2.5 uM incubated for 6 hrs in presence of fulvestrant by RT-qPCR analysis; format: functional, cell-based
MCF7 [7] = test: Antitumor activity against human MCF7 cells xenografted in BALB/C mouse assessed as downregulation of C-Myc gene expression at 50 mg/kg,ip administrated every other day for 29 days by RT-qPCR analysis; format: functional, organism-based; details: time 29.0 day
[8] = Toxicity in BALB/C mouse implanted with mouse 4T1 cells assessed as change in kidney morphology at 25 mg/kg,ip administrated daily for 14 days; format: organism-based; details: in vivo, 336 h, time 14 day
4T1 [9] = test: Antitumor activity against mouse 4T1 cells implanted in BALB/C mouse assessed as downregulation of CCND1 gene expression at 50 mg/kg,ip administrated daily for 14 days by RT-qPCR analysis; format: functional, organism-based; details: time 14.0 day
[10] = Toxicity in BALB/C mouse implanted with mouse 4T1 cells assessed as change in heart morphology at 25 mg/kg,ip administrated daily for 14 days; format: organism-based; details: in vivo, 336 h, time 14 day
[11] = Toxicity in BALB/C mouse xenografted with human MDA-MB-231 cells assessed as change in kidney morphology at 25 mg/kg,ip administrated daily for 11 days; format: organism-based; details: in vivo, 264 h, time 11 day
MCF7 [12] = test: Synergistic antiproliferative activity against human MCF7 cells assessed as downregulation of TFF1 gene expression at 2.5 uM incubated for 6 hrs in presence of fulvestrant by RT-qPCR analysis; format: functional, cell-based
MCF7 [13] = test: Synergistic antiproliferative activity against human MCF7 cells assessed as inhibition of colony formation at 2.5 uM incubated for 10 days in presence of tamoxifen by crystal violet staining based analysis; format: functional, cell-based; details: time 10.0 day
4T1 [14] = test: Antitumor activity against mouse 4T1 cells implanted in BALB/C mouse assessed as upregulation of CD8A expression at 50 mg/kg,ip administrated daily for 14 days by immunohistochemical staining based analysis; format: functional, organism-based; details: time 14.0 day
MCF7 [15] = test: Synergistic antitumor activity against human MCF7 cells xenografted in BALB/C mouse assessed as downregulation of TFF1 gene expression at 25 mg/kg,ip administrated every other day for 15 days in presence of 5 mg/kg tamoxifen oral administration by RT-qPCR analysis; format: functional, organism-based; details: time 15.0 day
[16] = Toxicity in BALB/C mouse implanted with mouse 4T1 cells assessed as change in body weight at 25 mg/kg,ip administrated daily for 14 days; format: organism-based; details: in vivo, 336 h, time 14 day
4T1 [17] = test: Antitumor activity against mouse 4T1 cells implanted in BALB/C mouse assessed as inhibition of tumor weight at 50 mg/kg,ip administrated daily for 14 days; format: functional, organism-based; details: time 14.0 day
[18] = Toxicity in BALB/C mouse xenografted with human MDA-MB-231 cells assessed as change in lung morphology at 25 mg/kg,ip administrated daily for 11 days; format: organism-based; details: in vivo, 264 h, time 11 day
MCF7 [19] = test: Synergistic antiproliferative activity against human MCF7 cells assessed as downregulation of GREB1 gene expression at 2.5 uM incubated for 6 hrs in presence of tamoxifen by RT-qPCR analysis; format: functional, cell-based
[20] = Toxicity in BALB/C mouse xenografted with human MCF7 cells assessed as change in heart morphology at 50 mg/kg,ip administrated every other day for 29 days; format: organism-based; details: in vivo, 696 h, time 29 day
MCF7 [21] = test: Synergistic antitumor activity against human MCF7 cells xenografted in BALB/C mouse assessed as downregulation of C-Myc gene expression at 25 mg/kg,ip administrated every other day for 15 days in presence of 5 mg/kg tamoxifen oral administration by RT-qPCR analysis; format: functional, organism-based; details: time 15.0 day
MCF7 [22] = test: Antitumor activity against human MCF7 cells xenografted in BALB/C mouse assessed as upregulation of CCL5 gene expression at 50 mg/kg,ip administrated every other day for 29 days by RT-qPCR analysis; format: functional, organism-based; details: time 29.0 day
MCF7 [23] = test: Antitumor activity against human MCF7 cells xenografted in BALB/C mouse assessed as downregulation of TFF1 gene expression at 50 mg/kg,ip administrated every other day for 29 days by RT-qPCR analysis; format: functional, organism-based; details: time 29.0 day
MDA-MB-468 = test: Antiproliferative activity against human MDA-MB-468 cells assessed as reduction in cell growth incubated for 7 days by celltiter 96 aqueous one solution cell proliferation assay; details: MDA-MB-468, 168 h
MCF7 [24] = test: Potentiation of etoposide induced antiproliferative activity against human MCF7 cells assessed as inhibition of colony formation at 2.5 uM incubated for 10 days in presence of etoposide by crystal violet staining based analysis; format: functional, cell-based; details: time 10.0 day
4T1 [25] = test: Potentiation of etoposide induced antiproliferative activity against mouse 4T1 cells assessed as upregulation of IFIT1 gene expression at 2.5 uM in presence of etoposide by RT-qPCR analysis; format: functional, cell-based
MCF7 [26] = test: Antitumor activity against human MCF7 cells xenografted in BALB/C mouse assessed as downregulation of CCND1 gene expression at 25 mg/kg,ip administrated every other day for 29 days by RT-qPCR analysis; format: functional, organism-based; details: time 29.0 day
MCF7 [27] = test: Synergistic antiproliferative activity against human MCF7 cells assessed as inhibition of cell growth at 2.5 uM incubated for 7 days in presence of fulvestrant by celltiter 96 aqueous one solution cell proliferation assay; format: functional, cell-based; details: time 7.0 day
[28] = Toxicity in BALB/C mouse xenografted with human MDA-MB-231 cells assessed as change in spleen morphology at 50 mg/kg,ip administrated daily for 11 days; format: organism-based; details: in vivo, 264 h, time 11 day
[29] = Toxicity in BALB/C mouse xenografted with human MDA-MB-231 cells assessed as change in lung morphology at 50 mg/kg,ip administrated daily for 11 days; format: organism-based; details: in vivo, 264 h, time 11 day
MCF7 [30] = test: Antitumor activity against human MCF7 cells xenografted in BALB/C mouse assessed as downregulation of FOXC1 gene expression at 50 mg/kg,ip administrated every other day for 29 days by RT-qPCR analysis; format: functional, organism-based; details: time 29.0 day
[31] = Toxicity in BALB/C mouse implanted with mouse 4T1 cells assessed as change in kidney morphology at 50 mg/kg,ip administrated daily for 14 days; format: organism-based; details: in vivo, 336 h, time 14 day
MCF7 [32] = test: Antiproliferative activity against human MCF7 cells assessed as reduction in cell growth incubated for 7 days by celltiter 96 aqueous one solution cell proliferation assay; details: MCF7, 168 h

Cc1ccc(-c2nc(N3CCN(CCN(C)C)CC3)ncc2-c2ccoc2)cc1.Cl.Cl
2020 nM: EC50 (MDA-MB-468)
active: Activity (MCF7 [1]) | Activity (MCF7 [2]) | Activity (4T1 [3]) | Activity (4T1 [4]) | Activity (4T1 [5]) | Activity (MCF7 [6]) | Activity (MCF7 [7]) | Activity (4T1 [9]) | Activity (MCF7 [12]) | Activity (MCF7 [13]) | Activity (4T1 [14]) | Activity (MCF7 [15]) | Activity (4T1 [17]) | Activity (MCF7 [19]) | Activity (MCF7 [21]) | Activity (MCF7 [22]) | Activity (MCF7 [23]) | Activity (MCF7 [24]) | Activity (4T1 [25]) | Activity (MCF7 [26]) | Activity (MCF7 [27]) | Activity (MCF7 [30])
1800 nM: EC50 (MCF7 [32])
Non-Toxic: Activity [8] | Activity [10] | Activity [11] | Activity [16] | Activity [18] | Activity [20] | Activity [28] | Activity [29] | Activity [31]
